Where two headings read alike, the source gives them in different places.
System: sciatic nerve of the rat
Type: in vivo, SD rats
Description: The experimental methods described in the following test examples were standard procedures unless otherwise specified. All experimental animals used in the following test examples were SD rats purchased from Hunan Slac Jingda Experimental Animal Co., Ltd. Other test materials, unless stated otherwise, were purchased from conventional biochemical reagent suppliers.
The compounds listed in Table 1 and levobupivacaine hydrochloride (positive control) were administered to three groups of rats fully acclimated to the experimental environment, with one rat per group.
Solution Preparation: 2 mg/ml Levobupivacaine Hydrochloride Injection: 2.670 ml of 7.5 mg/ml levobupivacaine hydrochloride injection (Batch No. 92S0702) was pipetted into a 10 ml volumetric flask. 0.9% NaCl solution was added until the meniscus was level with the calibration line, and the solution was inverted and mixed thoroughly, to prepare 2 mg/ml levobupivacaine hydrochloride injection. 2 mg/ml Example Compound Solution: 6.6 mg of the example compound was accurately weighed and dissolved in 3.3 ml of 0.9% NaCl solution to prepare a 2 mg/ml example compound solution.
Both the positive control and the example compound were administered to each rat at 2 mg/ml, with an administration volume of 5 ml/kg, in a single injection near the sciatic nerve of the rat. After the administration, the rat was placed on a preheated hot plate (50±0.1° C.) of an intelligent hot plate instrument. […] The maximum thermal latency was controlled at 60 s. […] Any urine or feces on the hot plate was promptly cleaned and dried before subsequent tests.
Thermal latency results were expressed as the maximum proportional effect (MPE), calculated using the following formula.
Wherein: B represented the basal thermal latency of the rats; P was the maximum thermal latency C was the observed thermal latency at the detection time point.
Measurements were considered invalid if the MPE was less than 50% of the maximum proportional effect. If two consecutive measurements yielded an MPE of less than […], the experiment was terminated.

[1] = 2 mg/ml, 5 ml/kg, single injection near the sciatic nerve of the rat, hot plate 50±0.1° C.

For `CCCC[N+]1(CCOCCOc2ccccc2)CCCC[C@H]1C(=O)Nc1c(C)cccc1C` (stereo partly drawn) [Comparative Example 1, (2S)-1-Butyl-2-((2,6-dimethylphenyl)carbamoyl)-1-(2-(2-phenoxyethoxy)ethyl)piperidine bromide, reference compound], the “the rat died, time after administration” value (2 mg/ml, 5 ml/kg, single injection near the sciatic nerve) was 1 (the rat died 4 h, the Duration/h (rat, in vivo) was 1 (the rat died 4 h and the “Onset Time/min” value (rat, in vivo) was 2 min.
For `CCCC[N+]1(CCCCNc2c(C)cc(C)cc2C)CCCC[C@H]1C(=O)Nc1c(C)cccc1C` (stereo partly drawn) [Compound of Example 19, (2S)-1-Butyl-2-((2,6-dimethylphenyl)carbamoyl)-1-(4-(symmetricaltrimethylamino)butyl)piperidine bromide], the Duration/h [1] was 2 to 18 h and the “Onset Time/min” value [1] was 2 min.
In the case of `CCCC[N+]1(CCCCNc2ccc(Cl)cc2)CCCC[C@H]1C(=O)Nc1c(C)cccc1C` (stereo partly drawn) [Compound of Example 20, (2S)-1-Butyl-1-(4-((4-chlorophenyl)amino)butyl)-2-((2,6-dimethylphenyl)carbamoyl)piperidine bromide], the Duration/h (rat, in vivo) is reported as 24 to 48 h and the “Onset Time/min” value (rat, in vivo) is reported as 1 min.
For `CCCC[N+]1(CCCCNc2ccc(F)c(F)c2)CCCC[C@H]1C(=O)Nc1c(C)cccc1C.[Br-]` (stereo partly drawn) [Compound of Example 21, (2S)-1-Butyl-1-(4-((3,4-difluorophenyl)amino)butyl)-2-((2,6-dimethylphenyl)carbamoyl) piperidine bromide], the Duration/h [1] was 19 to 24 h and the “Onset Time/min” value [1] was 1 min.
With `CCCC[N+]1(CCCCOc2cc(C)ccc2C(C)C)CCCC[C@H]1C(=O)Nc1c(C)cccc1C` (stereo partly drawn) [Compound of Example 23, (2S)-1-Butyl-2-((2,6-dimethylphenyl)carbamoyl)-1-(4-(2-isopropyl-5-methylphenoxy)butyl) piperidine bromide] the Duration/h [1] was 48 to 72 h and the “Onset Time/min” value [1] was 1 min.
`CCCC[N+]1(CCCCOc2cccc(C)c2)CCCC[C@@H]1C(=O)Nc1c(C)cccc1C.[Cl-]` (stereo partly drawn) [Compound of Example 29, (2R)-1-Butyl-2-((2,6-dimethylphenyl)carbamoyl)-1-(4-(m-tolyloxy)butyl)piperidine chloride] was tested, and the Duration/h [1] was 24 to 30 h and the “Onset Time/min” value [1] was 1 min.
With `CCCC[N+]1(CCCOc2ccccc2)CCCC[C@H]1C(=O)Nc1c(C)cccc1C` (stereo partly drawn) [Compound of Example 34, (2S)-1-Butyl-2-((2,6-dimethylphenyl)carbamoyl)-1-(3-phenoxypropyl)piperidine bromide] the Duration/h (rat, in vivo) was 0 h and the “Onset Time/min” value (rat, in vivo) was “No effect observed”.
In the case of `CCCC[N+]1(CCCOc2cccc(C)c2)CCCC[C@H]1C(=O)Nc1c(C)cccc1C` (stereo partly drawn) [Compound of Example 35, (2S)-1-Butyl-2-((2,6-dimethylphenyl)carbamoyl)-1-(3-(m-tolyloxy)propyl)piperidine bromide], the Duration/h [1] is reported as 0 h and the “Onset Time/min” value [1] is reported as “No effect observed”.
In the case of `Cc1cccc(C)c1NC(=O)[C@@H]1CCCC[N+]1(CCCCOc1ccccc1)CC(C)C` (stereo partly drawn) [Compound of Example 37, (2S)-1-(Isobutylmethyl)-2-((2,6-dimethylphenyl)carbamoyl)-1-(4-phenoxybutyl)piperidine bromide], the Duration/h (rat, in vivo) is reported as 2 to 18 h and the “Onset Time/min” value (rat, in vivo) is reported as 2 min.
`CCCC[N+]1(CCCCOc2cccc(C)c2)CCCC[C@H]1C(=O)Nc1ccccc1C` (stereo partly drawn) [Compound of Example 41, (2S)-1-Butyl-2-(o-tolylcarbamoyl)-1-(4-(m-tolyloxy)butyl)piperidinebromide] was tested, and the Duration/h (rat, in vivo) was 2 to 24 h and the “Onset Time/min” value (rat, in vivo) was 2 min.
For `CCCC[N+]1(CCCCOc2cccc(C)c2)CCCC[C@H]1C(=O)Nc1c(CC)cccc1CC` (stereo partly drawn) [Compound of Example 42, (2S)-1-Butyl-2-((2,6-diethylphenyl)carbamoyl)-1-(4-(m-tolyloxy)butyl)piperidine bromide], the Duration/h (rat, in vivo) was 2 to 24 h and the “Onset Time/min” value (rat, in vivo) was 2 min.

From patent US20250326755A1, “CYCLIC QUATERNARY AMMONIUM SALT COMPOUND, AND PREPARATION METHOD THEREFOR AND USE THEREOF” (YICHANG HUMANWELL PHARMACEUTICAL CO., LTD., priority 2022, published 2025)
